Drawing on patent US8895744B2, “Alfa-carboline inhibitors of NPM-ALK, RET, and Bcr-Abl” (Universita' Degli Studi di Milano-Bicocca, priority 2008, dated 2014), this text covers IC50 and GI50 for 26 compounds.

Structures are written as SMILES.

One assay deals with T1, Recombinant ALK kinase (Homo sapiens, UniProt Q9UM73).
T1 construct: made in house; host or cells: Sf9 insect cells (baculovirus)
As to the kind of experiment: ALK kinase inhibitory activity, ELISA-based in vitro kinase assay. Format: biochemical. Conditions: purified rALK, 0.3 mM ATP, read-out: ALK IC50. As for the experimental part: 36. Alk Kinase Inhibitory Activity
Method: ELISA-Based In Vitro Kinase Assay
Recombinant ALK kinase was expressed in Sf9 insect cells using the pBlueBacHis2C baculovirus vector system and purified using an anion exchange Fast Flow Q-sepharose column (Amersham-Pharmacia Biotech) followed by HiTrap™-nickel affinity column (Amersham-Pharmacia Biotech). Purified ALK protein was used to screen inhibitors in the ELISA-based kinase assay. A Nunc Immuno 96 well plate was incubated overnight at 37° C. with coating solution (125 μL/well) containing ALK peptide substrate ([…]) (SEQ ID NO: 1) at various concentrations in PBS. Wells were then washed with 200 μL of wash buffer (PBS-Tween 0.05%) and left to dry for at least 2 h at 37° C. The kinase reaction was performed in the presence of 50 mM Tris pH 7.5, 5 mM MnCl2, 5 mM MgCl2, 0.3 mM ATP and purified rALK in a total volume of 100 μL/well at 30° C. for 15 min. For inhibitor testing the reaction mix was preincubated with the inhibitor or solvent control for 10 min at room temperature before transferring to the ELISA plate. After the reaction wells were washed 5 times with 200 μL of wash buffer. Phosphorylated peptide was detected using 100 μL/well of a mouse monoclonal anti-phosphotyrosine antibody (clone 4G10 Upstate Biotech Ltd) diluted 1:2000 in PBS+4% BSA. After 30 min incubation at room temperature the antibody was removed and wells were washed as described above. 100 μL of a secondary antibody (anti-mouse IgG, Horseradish Peroxidase linked whole antibody, Amersham Pharmacia Biotech) diluted 1:1000 in PBS+4% BSA was added to each well and the plate was incubated again for 30 min at room temperature before washing as above. The plate was developed using 100 μL/well TMB Substrate Solution (Endogen) and the reaction was stopped by adding an equiv.ual volume of H2SO4 0.36 M. Finally, the absorbance was read at 450 nm using an Ultrospec® 300 spectrophotometer (Amersham-Pharmacia Biotech). The concentration of the test solution showing 50% inhibition as compared with the control was expressed as IC50 (μM).

Assay [1] relates to parent untransformed BaF3 cells. As to the kind of experiment: Tritiated thymidine uptake cell proliferation assay, parental BaF3 (control). It counts as cell-based. Conditions: Mus musculus, 3[H]-thymidine uptake, 72 h, medium with IL-3, read-out: BaF parental IC50. As for the experimental part: (§1) Method: Tritiated Thymidine Uptake Cell Proliferation Assay
(§2) The following procedure was used with parent untransformed BaF3 cells, BaF3 cells transformed with the oncogenic fusion protein NPM/ALK, NPM/ALK positive SUDHL-1 cells, ALK-negative U937 cells, NPM/ALK positive KARPAS-299 cells. The parent untransformed BaF3 cells and Alk-negative U937 cells are used as controls. Cells were seeded in U-bottomed 96-well plates at 10 000 cells/well in a volume of 100 μL in supplemented medium. In the case of the parent untransformed BaF3 cells, the medium was supplemented with IL-3. Serial dilutions of inhibitors were added to the appropriate wells and volumes adjusted to 200 μL. Controls were treated with the equivalent volume of vehicle, DMSO, alone. Plates were incubated at 37° C. for 72 h. ^3[H]-thymidine (1 μCi/well) was added for the last 16 h of incubation. Cells were harvested on to paper filters and ^3[H]-thymidine incorporation was measured using a β scintillation counter (1430 MicroBeta, Wallac, Turku, Finland). The 50% inhibitory concentration (IC50) was defined as the concentration of inhibitor, expressed in micromolar, that gave a 50% decrease in ^3[H]-thymidine uptake compared with controls.
as §2, with “protein bcr-abl, Abl-negative” for “protein NPM/ALK, NPM/ALK positive SUDHL-1 cells, ALK-negative”, “cells, or Bcr-abl” for “cells, NPM/ALK”, “positive LAMA-84” for “positive KARPAS-299”, “and Abl-negative” for “and Alk-negative”, “in ^3H-thymidine” for “in ^3[H]-thymidine”
as §2, with “RET-PTC2, or RET-negative 11937” for “NPM/ALK, NPM/ALK positive SUDHL-1 cells, ALK-negative U937 cells, NPM/ALK positive KARPAS-299”, “RET-negative” for “Alk-negative”

In assay [2] the target is T2, BaF3 cells transformed with the oncogenic fusion protein NPM/ALK (Homo sapiens, UniProt Q9UM73).
T2 construct: fused on or other part: P06748 (Nucleophosmin)
T2 sequence (Q9UM73 whole entry, change not shown, the tested form may be a part): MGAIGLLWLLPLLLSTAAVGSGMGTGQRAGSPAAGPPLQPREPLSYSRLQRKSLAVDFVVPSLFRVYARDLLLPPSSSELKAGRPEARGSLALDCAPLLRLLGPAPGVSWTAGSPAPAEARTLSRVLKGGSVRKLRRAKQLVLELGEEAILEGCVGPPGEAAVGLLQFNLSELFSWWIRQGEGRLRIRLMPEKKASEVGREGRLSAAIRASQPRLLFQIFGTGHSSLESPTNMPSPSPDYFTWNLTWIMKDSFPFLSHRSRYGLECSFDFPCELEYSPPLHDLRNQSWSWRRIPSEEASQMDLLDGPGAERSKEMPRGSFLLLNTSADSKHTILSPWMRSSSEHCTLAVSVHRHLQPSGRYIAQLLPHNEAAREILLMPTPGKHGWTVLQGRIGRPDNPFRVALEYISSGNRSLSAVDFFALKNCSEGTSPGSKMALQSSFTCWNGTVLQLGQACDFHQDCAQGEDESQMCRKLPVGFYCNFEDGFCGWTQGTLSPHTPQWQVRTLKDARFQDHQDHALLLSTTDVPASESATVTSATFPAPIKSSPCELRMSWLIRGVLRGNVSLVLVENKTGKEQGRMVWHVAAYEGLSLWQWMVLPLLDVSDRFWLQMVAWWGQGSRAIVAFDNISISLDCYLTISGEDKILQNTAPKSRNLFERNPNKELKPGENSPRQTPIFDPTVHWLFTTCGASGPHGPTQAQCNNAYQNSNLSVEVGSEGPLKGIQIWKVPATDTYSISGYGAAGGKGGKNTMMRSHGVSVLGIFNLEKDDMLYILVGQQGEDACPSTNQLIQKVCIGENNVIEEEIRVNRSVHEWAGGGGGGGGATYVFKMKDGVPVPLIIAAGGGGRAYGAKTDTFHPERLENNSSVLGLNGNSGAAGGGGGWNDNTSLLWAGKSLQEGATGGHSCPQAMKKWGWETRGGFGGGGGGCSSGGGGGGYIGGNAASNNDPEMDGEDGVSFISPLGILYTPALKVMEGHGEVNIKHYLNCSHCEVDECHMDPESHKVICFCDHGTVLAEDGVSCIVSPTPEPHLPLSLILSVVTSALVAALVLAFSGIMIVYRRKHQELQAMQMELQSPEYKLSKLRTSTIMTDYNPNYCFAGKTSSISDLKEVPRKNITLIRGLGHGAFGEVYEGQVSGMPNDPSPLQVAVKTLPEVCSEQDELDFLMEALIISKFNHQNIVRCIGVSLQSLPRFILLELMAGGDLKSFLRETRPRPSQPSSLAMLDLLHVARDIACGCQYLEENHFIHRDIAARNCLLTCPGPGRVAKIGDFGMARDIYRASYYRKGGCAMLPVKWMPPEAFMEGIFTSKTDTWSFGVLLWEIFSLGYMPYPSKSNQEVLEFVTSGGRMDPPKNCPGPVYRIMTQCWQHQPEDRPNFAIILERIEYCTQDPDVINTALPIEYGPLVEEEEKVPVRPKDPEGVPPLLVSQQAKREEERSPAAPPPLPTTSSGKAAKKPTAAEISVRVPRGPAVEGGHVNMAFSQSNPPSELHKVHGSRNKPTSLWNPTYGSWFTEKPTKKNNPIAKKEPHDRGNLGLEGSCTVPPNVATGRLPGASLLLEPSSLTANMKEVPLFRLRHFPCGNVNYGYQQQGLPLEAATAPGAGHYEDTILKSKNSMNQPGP
Briefly: Tritiated thymidine uptake cell proliferation assay, BaF3 NPM/ALK. The settings on record: 3[H]-thymidine uptake, 72 h; read-out: BaF NPM/ALK IC50. It counts as cell-based. As for the experimental part:
Inhibition of the proliferation of NPM/ALK positive cells
as §1, §2

T1 sequence (Q9UM73 19-1620): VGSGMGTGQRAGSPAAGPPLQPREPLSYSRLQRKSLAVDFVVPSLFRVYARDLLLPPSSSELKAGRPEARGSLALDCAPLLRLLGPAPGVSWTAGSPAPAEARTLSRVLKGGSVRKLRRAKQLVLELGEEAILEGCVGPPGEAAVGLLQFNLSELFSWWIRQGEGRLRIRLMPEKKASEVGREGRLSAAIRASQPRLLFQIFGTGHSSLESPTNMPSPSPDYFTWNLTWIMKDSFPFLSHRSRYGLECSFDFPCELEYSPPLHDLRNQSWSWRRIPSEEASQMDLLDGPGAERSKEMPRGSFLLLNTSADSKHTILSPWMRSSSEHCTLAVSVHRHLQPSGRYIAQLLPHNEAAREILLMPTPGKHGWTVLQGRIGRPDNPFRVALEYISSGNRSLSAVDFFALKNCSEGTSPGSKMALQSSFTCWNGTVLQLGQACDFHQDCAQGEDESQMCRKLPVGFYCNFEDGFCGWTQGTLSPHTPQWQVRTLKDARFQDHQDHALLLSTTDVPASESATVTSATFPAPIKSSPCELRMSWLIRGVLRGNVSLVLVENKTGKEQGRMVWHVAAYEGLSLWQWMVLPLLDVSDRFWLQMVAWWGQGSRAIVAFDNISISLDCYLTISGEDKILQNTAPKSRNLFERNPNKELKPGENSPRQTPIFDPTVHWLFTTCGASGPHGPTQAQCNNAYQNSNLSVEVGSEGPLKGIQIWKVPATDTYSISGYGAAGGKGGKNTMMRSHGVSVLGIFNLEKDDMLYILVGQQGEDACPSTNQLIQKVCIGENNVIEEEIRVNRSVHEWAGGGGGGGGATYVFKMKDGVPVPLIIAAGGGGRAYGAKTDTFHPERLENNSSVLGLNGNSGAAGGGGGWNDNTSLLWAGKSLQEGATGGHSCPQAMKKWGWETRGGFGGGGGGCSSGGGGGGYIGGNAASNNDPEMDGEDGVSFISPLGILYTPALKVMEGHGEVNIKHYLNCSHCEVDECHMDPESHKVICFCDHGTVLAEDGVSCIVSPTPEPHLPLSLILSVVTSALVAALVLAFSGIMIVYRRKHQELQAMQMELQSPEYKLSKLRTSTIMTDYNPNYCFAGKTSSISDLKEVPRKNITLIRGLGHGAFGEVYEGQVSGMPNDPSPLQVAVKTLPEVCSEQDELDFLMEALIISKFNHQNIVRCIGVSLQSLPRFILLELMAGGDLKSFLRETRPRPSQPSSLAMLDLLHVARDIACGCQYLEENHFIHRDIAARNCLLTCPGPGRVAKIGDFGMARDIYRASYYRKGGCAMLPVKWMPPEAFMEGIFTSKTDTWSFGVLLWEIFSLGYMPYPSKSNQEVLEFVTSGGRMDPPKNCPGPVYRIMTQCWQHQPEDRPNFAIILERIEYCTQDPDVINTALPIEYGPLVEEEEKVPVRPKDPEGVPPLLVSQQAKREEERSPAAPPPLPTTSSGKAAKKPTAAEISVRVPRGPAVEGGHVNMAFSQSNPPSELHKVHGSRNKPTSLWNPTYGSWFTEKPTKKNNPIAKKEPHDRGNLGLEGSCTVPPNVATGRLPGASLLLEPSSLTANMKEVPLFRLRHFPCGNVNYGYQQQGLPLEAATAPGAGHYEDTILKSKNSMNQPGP

In the case of `COC(=O)C(=O)c1ccc2[nH]c3nc(C)ccc3c2c1` [R241, Methyl 2-oxo-2-[2-methyl-9H-pyrido[2,3-b]indol-6-yl]acetate], on Recombinant ALK kinase, the IC50 stood at 25.3 ± 2.6 µM.

Turning to `CC(=O)c1ccc2[nH]c3nc(C)ccc3c2c1` [R242, 6-acetyl-2-methyl-9H-pyrido[2,3-b]indole], the IC50 on Recombinant ALK kinase was 87.1 ± 1.3 µM.

Turning to `Cc1ccc2c(n1)[nH]c1ccc(C(=O)c3ccccc3)cc12` [R243, 6-benzoyl-2-methyl-9H-pyrido[2,3-b]indole], the IC50 on Recombinant ALK kinase came to 15.3 ± 1.5 µM.

On to `O=[N+]([O-])/C=C/c1ccc2[nH]c3ncccc3c2c1` [R244], for which the IC50 on Recombinant ALK kinase is 14.6 ± 2.8 µM.

Regarding `CNCC(=O)c1ccc2[nH]c3ncccc3c2c1` [R245], on Recombinant ALK kinase, the IC50 stood at 82.4 ± 8.1 µM.

As for `CN(C)/C=C/C(=O)c1ccc2[nH]c3ncccc3c2c1` [R246], the IC50 on Recombinant ALK kinase is 55.1 ± 16.9 µM.

In the case of `Nc1cccc(-c2ccc3[nH]c4ncccc4c3c2)n1` [R247], the IC50 on Recombinant ALK kinase is more than 100 µM.

Take `O=C(Nc1ccc2[nH]c3ncccc3c2c1)c1ccccc1` [R249]: the IC50 at Recombinant ALK kinase was more than 100 µM.

Consider `O=C(CBr)c1ccc2[nH]c3ncc(Cl)cc3c2c1` [R251, 2-Bromo-1-(3-chloro-9H-pyrido[2,3-b]indol-6-yl)ethanone], for which the IC50 on Recombinant ALK kinase amounted to 9.7 ± 1.3 µM.

Consider `COc1ccc2sc(SCC(=O)c3ccc4[nH]c5ncc(Cl)cc5c4c3)nc2c1` [R301, 1-(3-chloro-9H-pyrido[2,3-b]indol-6-yl)-2-(5-methoxybenzothiazol-2-ylsulfanyl)éthanone], for which, at Recombinant ALK kinase, the half-maximal inhibitory concentration (IC50) was 38 ± 16 µM.

With `CN1CCN(C(=O)CCC(=O)c2ccc3[nH]c4nc(Cl)ccc4c3c2)CC1` [R302, 1-(2-Chloro-9H-pyrido[2,3-b]indol-6-yl)-4-(4-methylpiperazin-1-yl)butane-1,4-dione], the half-maximal inhibitory concentration (IC50) at Recombinant ALK kinase was 24 ± 2 µM; in assay [1], 5.8 µM. Moreover, the GI50 in assay [2] was found to be 4.8 µM.

With `Clc1cnc2[nH]c3ccc(-c4ccc(N5CCOCC5)cn4)cc3c2c1` [R308, 3-Chloro-6-(5-morpholin-4-yl-pyridin-2-yl)-9H-pyrido[2,3-b]indole], the IC50 on Recombinant ALK kinase was more than 100 µM; in assay [1] it was 50 µM. In assay [2], the GI50 is 60 µM.

Take `C(=C\c1ccc2c(n1)[nH]c1ccc(-c3ccc(CN4CCOCC4)cc3)cc12)/c1ccccc1` [R316]: the half-inhibitory concentration (IC50) (on Recombinant ALK kinase; in assay [1]) was more than 33 µM throughout. Also, the GI50 in assay [2] was 10 µM.

On to `C(=C\c1ccc2[nH]c3nc(Nc4ccccc4)ccc3c2c1)/c1ccccc1` [R320], for which the IC50 in assay [1] turned out to be 23 µM.

Turning to `CCN(CC)CCSCC(=O)c1ccc2[nH]c3nc(Nc4cccc([N+](=O)[O-])c4)ccc3c2c1` [R321, 2-(2′-(N,N-diethylamino)ethylthio)-1-[2-(3-nitrophenylamino)-9H-pyrido[2,3-b]indol-6-yl]ethanone], the values for the IC50 (at Recombinant ALK kinase; in assay [1]) were 18 ± 1 µM and 0.7 µM, respectively. In addition, in assay [2], the GI50 was found to be 0.3 µM.

`O=[N+]([O-])c1cccc(Nc2ccnc3[nH]c4ccccc4c23)c1` [R322, N-(3-nitrophenyl)-9H-pyrido[2,3-b]indol-4-amine]: the results for the half-inhibitory concentration (IC50) (on Recombinant ALK kinase; in assay [1]) were 20 ± 4 µM and more than 100 µM, respectively. Further, in assay [2], the GI50 was determined as 57 µM.

`COc1cccc(Nc2ccnc3[nH]c4ccccc4c23)c1` [R324, N-(3-methoxyphenyl)-9H-pyrido[2,3-b]indol-4-amine]: the IC50 at Recombinant ALK kinase is more than 100 µM; in assay [1] it was 1.7 µM. Further, in assay [2], the GI50 was 3.8 µM.

Regarding `c1coc(-c2cnc3[nH]c4ccccc4c3c2)c1` [R325, 3-(furan-2-yl)-9H-pyrido[2,3-b]indole], the half-inhibitory concentration (IC50) in assay [1] is more than 100 µM. For the same compound, the GI50 in assay [2] was more than 100 µM.

For `O=[N+]([O-])c1cccc(-c2cnc3[nH]c4ccccc4c3c2)c1` [R328, 3-(3-nitrophenyl)-9H-pyrido[2,3-b]indole], the IC50 on Recombinant ALK kinase was determined as 48 ± 17 µM; in assay [1], 6.8 µM. Also, the GI50 in assay [2] came to 13 µM.

With `c1ccc(-c2ccc(-c3cnc4[nH]c5ccccc5c4c3)cc2)cc1` [R329, 3-(4-phenylphenyl)-9H-pyrido[2,3-b]indole], the values for the IC50 (on Recombinant ALK kinase; in assay [1]) were 12 ± 7 µM and more than 100 µM, respectively. Besides, the GI50 in assay [2] was more than 100 µM.

On to `c1ccc(-c2ccc(-c3ccnc4[nH]c5ccccc5c34)cc2)cc1` [R330, 4-(4-phenylphenyl)-9H-pyrido[2,3-b]indole], for which the IC50 on Recombinant ALK kinase was 14 ± 2 µM; in assay [1], more than 100 µM. Also, the GI50 in assay [2] is more than 100 µM.

For the compound `COc1cccc(Nc2cnc3[nH]c4ccccc4c3c2)c1` [R344, N-(3-methoxyphenyl)-9H-pyrido[2,3-b]indol-3-amine], the IC50 at Recombinant ALK kinase was more than 100 µM.

In the case of `c1c[nH]c(-c2ccc3c(n2)[nH]c2ccccc23)c1` [R355, 2-(1H-pyrrol-2-yl)-9H-pyrido[2,3-b]indole], the IC50 on Recombinant ALK kinase is more than 100 µM.

As to `COc1ccc(-c2ccc3[nH]c4ncc(-c5cccc([N+](=O)[O-])c5)cc4c3c2)cc1` [R356], the IC50 on Recombinant ALK kinase was more than 100 µM.

Consider `COc1ccc(-c2ccc3[nH]c4ncc(-c5cccc(N)c5)cc4c3c2)cc1` [R357, 3-(6-(4-methoxyphenyl)-9H-pyrido[2,3-b]indol-3-yl)benzenamine], for which the IC50 at Recombinant ALK kinase was more than 100 µM.

As to `Fc1cccc(/C=C/c2cnc3[nH]c4ccc(/C=C/c5ccccc5)cc4c3c2)c1` [R359, 3-((E)-2′-(3-fluorophenyl)ethenyl)-6-(E)-(2-(phenyl)ethenyl)-9H-pyrido[2,3-b]indole], the IC50 at Recombinant ALK kinase was more than 100 µM.

For orientation: IC50 means the concentration that gives 50% inhibition.
